# Measured values published in US20060069132A1, “Azolecarboxamide herbicides” (priority 2004, published 2006).
# Experiments:
# barnyardgrass [1] = assay: Test B pre-/postemergence herbicide test; assay type: in vivo, Echinochloa crus-galli; conditions: for Plant response rating (0 to 100 scale), Barnyardgrass: 0 is no effect; for Barnyardgrass plant response rating: postemergence
# Procedure, shortened: (§1)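 Response was scored visually 13 to 15 days after treatment against untreated greenhouse controls, 0 meaning no effect and 100 complete control. Formulations (solvent mixture plus surfactant) went onto soil after planting, onto foliage of 1- to 4-leaf plants, and onto 2-leaf plants in a flooded paddy set including rice and barnyardgrass.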
# Surinam grass = assay: Test B pre-/postemergence herbicide test; assay type: in vivo, Urochloa decumbens; conditions: for Plant response rating (0 to 100 scale), Surinam Grass: 0 is no effect
# Procedure, shortened: as §1
# cocklebur = assay: Test B pre-/postemergence herbicide test; assay type: in vivo, Xanthium strumarium; conditions: for Plant response rating (0 to 100 scale), Cocklebur: 0 is no effect; for Cocklebur plant response rating: postemergence
# Procedure, shortened: as §1
# corn = assay: Test B pre-/postemergence herbicide test; assay type: in vivo, Zea mays; conditions: for Plant response rating (0 to 100 scale), Corn: 0 is no effect; for Corn plant response rating: postemergence
# Procedure, shortened: as §1
# large crabgrass = assay: Test B pre-/postemergence herbicide test; assay type: in vivo, Digitaria sanguinalis; conditions: for Plant response rating (0 to 100 scale), Crabgrass, Large: 0 is no effect; for Crabgrass, Large plant response rating: postemergence
# Procedure, shortened: as §1
# giant foxtail = assay: Test B pre-/postemergence herbicide test; assay type: in vivo, Setaria faberi; conditions: for Plant response rating (0 to 100 scale), Foxtail, Giant: 0 is no effect; for Foxtail, Giant plant response rating: postemergence
# Procedure, shortened: as §1
# lambsquarters = assay: Test B pre-/postemergence herbicide test; assay type: in vivo, Chenopodium album; conditions: for Plant response rating (0 to 100 scale), Lambsquarters: 0 is no effect
# Procedure, shortened: as §1
# morningglory = assay: Test B pre-/postemergence herbicide test; assay type: in vivo, Ipomoea coccinea; conditions: for Plant response rating (0 to 100 scale), Morningglory: 0 is no effect
# Procedure, shortened: as §1
# pigweed = assay: Test B pre-/postemergence herbicide test; assay type: in vivo, Amaranthus retroflexus; conditions: for Plant response rating (0 to 100 scale), Pigweed: 0 is no effect
# Procedure, shortened: as §1
# velvetleaf = assay: Test B pre-/postemergence herbicide test; assay type: in vivo, Abutilon theophrasti; conditions: for Plant response rating (0 to 100 scale), Velvetleaf: 0 is no effect, preemergence
# Procedure, shortened: as §1
# blackgrass = assay: Test B postemergence herbicide test; assay type: in vivo, Alopecurus myosuroides; conditions: postemergence
# Procedure, shortened: (§2)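 Visual control ratings, 0–100 versus untreated controls, taken after 13 to 15 days in the greenhouse. Blackgrass received a postemergence spray at the 1- to 4-leaf stage (2–18 cm); ducksalad, umbrella sedge and barnyardgrass were flooded-paddy treated at 2 leaves.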
# wheat = assay: Test B postemergence herbicide test; assay type: in vivo, Triticum aestivum; parameters: key to Wheat plant response rating: 0 = no effect, 100 = complete control
# Procedure, shortened: (§3)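 Visual ratings, 0 (no effect) to 100 (complete control), made versus controls after 13–15 d greenhouse. Paddy plants treated at 2-leaf stage; postemergence plants at 1- to 4-leaf stage, 2–18 cm tall.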
# wild oat = assay: Test B postemergence herbicide test; assay type: in vivo, Avena fatua
# Procedure, shortened: as §3
# rice [2] = assay: Test B flooded paddy test; assay type: in vivo, Oryza sativa; conditions: 1000 g ai/ha, scale 0 to 100 (0 no effect, 100 complete control)
# Procedure, shortened: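 Postemergence plants were sprayed with formulated test chemicals at 2 to 18 cm height (1- to 4-leaf stage); paddy species were grown to the 2-leaf stage. After 13 to 15 days in a greenhouse, injury was rated visually against untreated controls on a 0–100 scale (0 = no effect, 100 = complete control).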
# [3] = tested on: small flower umbrella sedge; assay: Test B flooded paddy test; assay type: in vivo, Cyperus difformis; conditions: 1000 g ai/ha, scale 0 to 100 (0 no effect, 100 complete control)
# Procedure, shortened: as §2
# ducksalad [4] = assay: Test B flooded paddy test; assay type: in vivo, Heteranthera limosa; conditions: 1000 g ai/ha, scale 0 to 100 (0 no effect, 100 complete control)
# Procedure, shortened: as §2
# barnyardgrass [5] = assay: Test B flooded paddy test; assay type: in vivo, Echinochloa crus-galli; conditions: 1000 g ai/ha, scale 0 to 100 (0 no effect, 100 complete control)
# Procedure, shortened: as §2
# rice [6] = assay: Test C flooded paddy test; assay type: in vivo, Oryza sativa; conditions: for Plant response rating, Rice: 500 g ai/ha, visual rating after 12 to 14 days
# Procedure, shortened: (§4)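 Injury scored visually against controls on a 0 (no effect) to 100 (complete control) scale, 12 to 14 days after treatment in greenhouse. Flooded paddy plants treated at 2-leaf stage; postemergence plants at 1- to 4-leaf stage, 2 to 18 cm tall.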
# [7] = tested on: smallflower umbrella sedge; assay: Test C flooded paddy test; assay type: in vivo, Cyperus difformis; conditions: for Plant response rating, Sedge, Umbrella: 500 g ai/ha, visual rating after 12 to 14 days
# ducksalad [8] = assay: Test C flooded paddy test; assay type: in vivo, Heteranthera limosa; conditions: for Plant response rating, Ducksalad: 500 g ai/ha, visual rating after 12 to 14 days
# barnyardgrass [9] = assay: Test C flooded paddy test; assay type: in vivo, Echinochloa crus-galli; conditions: for Plant response rating, Barnyardgrass: 500 g ai/ha, visual rating after 12 to 14 days
# Procedure, shortened: as §4
# [10] = 125 g ai/ha, 100 is complete control, preemergence
# [11] = 125 g ai/ha, visual rating, scale 0 (no effect) to 100 (complete control)
# [12] = 500 g ai/ha, scale 0 to 100, 0 is no effect, 100 is complete control
# [13] = 125 g ai/ha, visual rating, scale 0 (no effect) to 100 (complete control), postemergence
# [14] = Postemergence, 500 g ai/ha, scale 0 (no effect) to 100 (complete control)
# [15] = 125 g ai/ha, 100 is complete control
# [16] = 125 g ai/ha, scale 0 to 100 (0 no effect, 100 complete control)
# [17] = 250 g ai/ha, scale of 0 to 100, 0 is no effect, 100 is complete control
# [18] = scale 0 to 100 (0 no effect, 100 complete control)
# [19] = 62 g ai/ha, scale 0 to 100 (0 no effect, 100 complete control)
# [20] = 500 g ai/ha, visual rating, 0 = no effect, 100 = complete control, preemergence
# [21] = postemergence, 500 g ai/ha, scale 0 to 100, 0 is no effect, 100 is complete control
structure (smiles),measurement,setting,value
CCc1nn(C(C)(C)C)nc1C(=O)Nc1cc(C(=O)N(C)CC)ccc1F [Compound 388],"Plant response rating (0 to 100 scale), Barnyardgrass",barnyardgrass [1]; [10],50
same,Barnyardgrass plant response rating,barnyardgrass [1]; [11],0
same,Barnyardgrass plant response rating,barnyardgrass [1]; [12],10
same,"Plant response rating (0 to 100 scale), Surinam Grass",Surinam grass; [10],20
same,Surinam Grass plant response rating,Surinam grass; [13],10
same,Surinam Grass plant response rating,Surinam grass; [14],20
same,"Plant response rating (0 to 100 scale), Cocklebur",cocklebur; [10],0
same,Cocklebur plant response rating,cocklebur; [11],10
same,Cocklebur plant response rating,cocklebur; [12],20
same,"Plant response rating (0 to 100 scale), Corn",corn; [10],30
same,Corn plant response rating,corn; [11],10
same,Corn plant response rating,corn; [12],20
same,"Plant response rating (0 to 100 scale), Crabgrass, Large",large crabgrass; [10],80
same,"Crabgrass, Large plant response rating",large crabgrass; [11],20
same,"Crabgrass, Large plant response rating",large crabgrass; [12],20
same,"Plant response rating (0 to 100 scale), Foxtail, Giant",giant foxtail; [10],20
same,"Foxtail, Giant plant response rating",giant foxtail; [11],10
same,"Foxtail, Giant plant response rating",giant foxtail; [12],30
same,"Plant response rating (0 to 100 scale), Lambsquarters",lambsquarters; [10],90
same,Lambsquarters plant response rating,lambsquarters; [13],60
same,Lambsquarters plant response rating,lambsquarters; [14],70
same,"Plant response rating (0 to 100 scale), Morningglory",morningglory; [10],0
same,Morningglory plant response rating,morningglory; [13],10
same,Morningglory plant response rating,morningglory; [14],50
same,"Plant response rating (0 to 100 scale), Pigweed",pigweed; [10],80
same,Pigweed plant response rating,pigweed; [13],40
same,Pigweed plant response rating,pigweed; [14],50
same,"Plant response rating (0 to 100 scale), Velvetleaf",velvetleaf; [15],10
same,Velvetleaf plant response rating,velvetleaf; [13],20
same,Velvetleaf plant response rating,velvetleaf; [14],40
same,Blackgrass plant response rating,blackgrass; [11],0
same,Blackgrass plant response rating,blackgrass; [12],20
same,Wheat plant response rating,wheat; [13],0
same,Wheat plant response rating,"wheat; 500 g ai/ha, scale 0 to 100, 0 no effect, 100 complete control, preemergence",90
same,Wheat plant response rating,wheat; [14],10
same,"Oat, Wild plant response rating",wild oat; [13],0
same,"Oat, Wild plant response rating",wild oat; [14],10
same,Rice plant response rating,rice [2],70
same,"Sedge, Umbrella plant response rating",[3],70
same,Ducksalad plant response rating,ducksalad [4],80
same,Barnyardgrass plant response rating,barnyardgrass [5],70
same,Rice plant response rating,"rice [6]; 62 g ai/ha, scale 0 to 100",15
same,Rice plant response rating,rice [6]; [16],55
same,Rice plant response rating,rice [6]; [17],65
same,"Plant response rating, Rice",rice [6]; [18],70
same,"Sedge, Umbrella plant response rating","[7]; 62 g ai/ha, scale 0 to 100",65
same,"Sedge, Umbrella plant response rating",[7]; [16],70
same,"Sedge, Umbrella plant response rating",[7]; [17],75
same,"Plant response rating, Sedge, Umbrella",[7]; [18],80
same,Ducksalad plant response rating,"ducksalad [8]; 62 g ai/ha, scale 0 to 100",0
same,Ducksalad plant response rating,ducksalad [8]; [16],0
same,Ducksalad plant response rating,ducksalad [8]; [17],45
same,"Plant response rating, Ducksalad",ducksalad [8]; [18],80
same,Barnyardgrass plant response rating,barnyardgrass [9]; [19],0
same,Barnyardgrass plant response rating,barnyardgrass [9]; [16],10
same,Barnyardgrass plant response rating,barnyardgrass [9]; [17],35
same,"Plant response rating, Barnyardgrass",barnyardgrass [9]; [18],65
CCc1nn(C(C)C)nc1C(=O)Nc1cccc(C(=O)N2CC=CC2)c1 [Compound 359],"Plant response rating (0 to 100 scale), Barnyardgrass",barnyardgrass [1]; [10],0
same,Barnyardgrass plant response rating,barnyardgrass [1]; [11],10
same,"Plant response rating, Barnyardgrass",barnyardgrass [1]; [20],90
same,Barnyardgrass plant response rating,barnyardgrass [1]; [12],10
same,"Plant response rating (0 to 100 scale), Surinam Grass",Surinam grass; [10],20
same,Surinam Grass plant response rating,Surinam grass; [13],10
same,"Plant response rating, Surinam Grass",Surinam grass; [20],70
same,Surinam Grass plant response rating,Surinam grass; [21],10
same,"Plant response rating (0 to 100 scale), Cocklebur",cocklebur; [10],0
same,Cocklebur plant response rating,cocklebur; [11],10
same,"Plant response rating, Cocklebur",cocklebur; [20],30
same,Cocklebur plant response rating,cocklebur; [12],30
same,"Plant response rating (0 to 100 scale), Corn",corn; [10],0
same,Corn plant response rating,corn; [11],10
same,"Plant response rating, Corn",corn; [20],60
same,Corn plant response rating,corn; [12],10
same,"Plant response rating (0 to 100 scale), Crabgrass, Large",large crabgrass; [10],90
same,"Crabgrass, Large plant response rating",large crabgrass; [11],10
same,"Plant response rating, Crabgrass, Large",large crabgrass; [20],100
same,"Crabgrass, Large plant response rating",large crabgrass; [12],20
same,"Plant response rating (0 to 100 scale), Foxtail, Giant",giant foxtail; [10],60
same,"Foxtail, Giant plant response rating",giant foxtail; [11],20
same,"Plant response rating, Foxtail, Giant",giant foxtail; [20],100
same,"Foxtail, Giant plant response rating",giant foxtail; [12],20
same,"Plant response rating (0 to 100 scale), Lambsquarters",lambsquarters; [10],0
same,Lambsquarters plant response rating,lambsquarters; [13],40
same,"Plant response rating, Lambsquarters",lambsquarters; [20],100
same,Lambsquarters plant response rating,lambsquarters; [21],50
same,"Plant response rating (0 to 100 scale), Morningglory",morningglory; [10],0
same,Morningglory plant response rating,morningglory; [13],10
same,"Plant response rating, Morningglory",morningglory; [20],50
same,Morningglory plant response rating,morningglory; [21],10
same,"Plant response rating (0 to 100 scale), Pigweed",pigweed; [10],0
same,Pigweed plant response rating,pigweed; [13],20
same,"Plant response rating, Pigweed",pigweed; [20],100
same,Pigweed plant response rating,pigweed; [21],50
same,"Plant response rating (0 to 100 scale), Velvetleaf",velvetleaf; [15],0
same,Velvetleaf plant response rating,velvetleaf; [13],20
same,Velvetleaf plant response rating,velvetleaf; [21],20
same,Blackgrass plant response rating,blackgrass; [11],20
same,Blackgrass plant response rating,blackgrass; [12],50
same,Wheat plant response rating,wheat; [13],0
same,Wheat plant response rating,wheat; [21],20
same,"Oat, Wild plant response rating",wild oat; [13],20
same,"Oat, Wild plant response rating",wild oat; [21],30
same,Rice plant response rating,rice [2],70
same,"Sedge, Umbrella plant response rating",[3],80
same,Ducksalad plant response rating,ducksalad [4],70
same,Barnyardgrass plant response rating,barnyardgrass [5],70
same,Rice plant response rating,"rice [6]; 62 g ai/ha, scale 0 to 100",20
same,Rice plant response rating,rice [6]; [16],45
same,Rice plant response rating,rice [6]; [17],65
same,"Plant response rating, Rice",rice [6]; [18],80
same,"Sedge, Umbrella plant response rating","[7]; 62 g ai/ha, scale 0 to 100",80
same,"Sedge, Umbrella plant response rating",[7]; [16],90
same,"Sedge, Umbrella plant response rating",[7]; [17],90
same,"Plant response rating, Sedge, Umbrella",[7]; [18],95
same,Ducksalad plant response rating,"ducksalad [8]; 62 g ai/ha, scale 0 to 100",40
same,Ducksalad plant response rating,ducksalad [8]; [16],80
same,Ducksalad plant response rating,ducksalad [8]; [17],85
same,"Plant response rating, Ducksalad",ducksalad [8]; [18],90
same,Barnyardgrass plant response rating,barnyardgrass [9]; [19],15
same,Barnyardgrass plant response rating,barnyardgrass [9]; [16],55
same,Barnyardgrass plant response rating,barnyardgrass [9]; [17],75
same,"Plant response rating, Barnyardgrass",barnyardgrass [9]; [18],75
